Test results taken from patent US8476290B2, “Compound having spiro-bonded cyclic group and use thereof” (Ono Pharmaceutical Co., Ltd., priority 2009, dated 2013).

Columns and labels:
[1] = Blood kinetic test and time (T90) to maintain the IC90 value; format: in vivo, Crl:CD(SD) Rat; conditions: time the plasma concentration stays at the PBMC IC90 value or more; rat, intravenous 1 mg/kg
Description: A test compound was weighed, dissolved in WellSolve (trade name; manufactured by Celeste Corporation)/water/physiological saline=1/9/10 which was heated at 60° C. and adjusted to 20 mg/mL. Thereafter, the test compound was diluted by 10 times with distilled water for injection, and further diluted by 2 times with physiological saline. Then, intravenous administration was performed by rapid single administration of an intravenously administered solution (1 mg/kg) from the tail vein of Crl:CD(SD) Rat (male, manufactured by CHARLES RIVER LABORATORIES JAPAN, INC). The administration is conducted under fasting conditions; water is freely ingested. A 0.35 mL blood sample is taken from cervical vein by using Heparinized Syringe at 5 minutes, 15 minutes, 30 minutes, 1 hour, 2 hours, 4 hours, 6 hours, 8 hours, and 24 hours after administration. The obtained blood is stored in ice, and after centrifugation at 12,000 rpm for 5 minutes, blood plasma is fractionated. An internal standard solution (100 μL) and acetonitrile (2 mL) was added to 100 μL of plasma, followed by stirring and further centrifugation at 2,500 rpm for 10 minutes. The supernatant was desiccated by a centrifugal thickener and then 150 μL of an aqueous 67% dimethyl sulfoxide solution was added to the residue thereby dissolving again the residue, and 20 μL of the resultant solution was analyzed by LC/MS/MS.
Analysis by LC/MS/MS was carried out under the following conditions.
A curve of the compound concentration in plasma versus the time of each compound was adapted to a 1 or 2 compartment model using pharmacokinetic analysis software WinNonlin (trade name) (ver4.0.1, Pharsight Corporation).

CXCR4 = target: T1, CXCR4 (Homo sapiens, UniProt P61073); test: Inhibition of binding human SDF-1 to CEM cells; conditions: 125I-SDF-1, CEM cells, 4° C., 60 minutes; read-out: concentration showing 50% of an inhibition ratio
T1 construct: a human T cell strain in which CXCR4 is known to be expressed; endogenous in cells; host or cells: CEM cells (human T cell strain)
T1 sequence (P61073 whole entry): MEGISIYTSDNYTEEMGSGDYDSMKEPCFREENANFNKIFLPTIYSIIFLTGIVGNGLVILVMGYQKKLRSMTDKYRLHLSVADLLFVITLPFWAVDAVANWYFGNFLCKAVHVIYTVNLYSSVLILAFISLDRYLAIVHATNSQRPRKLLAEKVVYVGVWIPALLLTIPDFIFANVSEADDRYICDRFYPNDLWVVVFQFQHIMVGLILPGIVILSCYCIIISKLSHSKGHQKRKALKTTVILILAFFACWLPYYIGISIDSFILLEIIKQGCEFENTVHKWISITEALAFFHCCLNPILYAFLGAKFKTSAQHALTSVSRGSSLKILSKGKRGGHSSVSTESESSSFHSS
Description: Specifically, as a system of screening a compound that inhibits the binding between SDF-1 and CXCR4, for example a system of measuring the binding between iodine-labeled SDF-1 and a human T cell strain in which CXCR4 is known to be expressed is operable.
To human T cell strain CEM cells in a binding buffer (containing 2-[4-(2-Hydroxyethyl)-1-piperadinyl]ethansulfonic acid; HEPES and BSA), the test compound and ^125I-SDF-1 (PerkinElmer) were added and the mixture was incubated at 4° C. for 60 minutes. The reacted CEM cells were rapidly filtrated with a GF/B membrane filter plate (Packard) to adsorb. The plate was washed with phosphate buffered saline (hereinafter abbreviated to PBS) three times and then dried. Microscint+20 (Packard) was added thereto. An amount of the radioactivity bound to the CEM cells was measured using Top Count (Packard) and inhibition ratio (%) of the test compound was calculated according to the following equation: Inhibition={(Et−Ea)/(Et−Ec)}×100 [Equation 2] Et: Amount of radioactivity when the test compound is not added, Ec: Amount of radioactivity when non-radioactive SDF-1 (Pepro Tech) is added in an amount of 1,000 times as much as ^125I-SDF-1 as a test compound, and Ea: Amount of radioactivity when the test compound is added.

[2] = system: CHL/IU (cell line derived from a Chinese hamster lung); test: Phospholipid accumulation measurement (phospholipidosis induction); format: cell-based; conditions: NBD-PE, about 48 hours, at 400 μM (maximum treatment concentration); positive = 25% or more of maximum increase rate of amiodarone
Description: 100 µL/well as required (1 dose 2 wells) of cell suspension of CHL/IU (cell line derived from a Chinese hamster lung) (7×10^4 cells/mL) prepared by MEM (minimum essential medium) culture medium was added to a 96-well plate (96-well clear-bottom plate), and cultured for about 24 hours. After culture, the supernatant of the 96-well plate was removed, and the 100 μL/well compounds of each concentration dissolved and suspended in a minimum essential medium (MEM) including 25 μM nitrobenzoxazole dipalmitoyl phosphatidylethanolamine (NBD-PE) (hereinafter abbreviated to a NPD-PE medium) were added and treated for about 48 hours. The treatment concentrations of each compound were set to be 5, 50, 100, 200 and 400 μM. The positive control substance was set to be amiodarone hydrochloride, and the treatment concentrations were set to be 1.25, 2.5, 5, 10 and 20 μM. In addition, 5-well untreated controls (only MEM) and 5-well NBD-PE controls (made by means of adding a 1/100 amount of DMSO to the NBD-PE culture medium) were set per compound, and cultured in the same manner. After finishing the culture, the cultures were washed twice with PBS (−) 100 μL/well, and the MEM (100 μL) was added to all of the treatment wells including two empty wells for WST-1 background controls and cultured for about half an hour. The fluorescence intensities of each well were measured by using a microplate reader (manufactured by Molecular Devices Inc., SPECTRA max M2; the excitation wavelength 485 nm/fluorescence wavelength 535 nm). Using the average values of each dose×2 wells, a phospholipid increase rate (%) to the NBD-PE control was calculated by using the following calculating formula: Rate of increase of phospholipid accumulation (%)=100×{(test substance fluorescence intensity−non-treated control fluorescence intensity)/(NBD-PE control fluorescence intensity−non-treated control fluorescence intensity)} 3. Cytotoxicity Test 96-well plate measured in the phospholipid accumulation measurement was measured by means of Plate Reader (manufactured by Molecular Devices Inc., SPECTRA max M2) with the main wavelength of 450 nm and the correct wavelength of 690 nm to calculate a Pre value. An amount of 5 μL/well of Premix WST-1 was added to each of the 96-well plates by which Pre measurement was conducted. After culture for 2 to 4 hours, the 96-well plate was measured as well as the Pre measurement to calculate an Aft value. Then, the background control value was subtracted from the each measured value. A value which was calculated by subtracting the Pre value from the Aft value was used, then the cell growth rate (%) was calculated by using the following calculating formula: Cell growth rate (%)=100×{(test substance OD)/(NBD-PE control OD)} 4. Determination A test dose that indicated value of 25% or more of the maximum phospholipid accumulation increase rate of amiodarone which was the positive control was determined as positive. In addition, the dose whose cell growth rate was equal to or less than 50% in the cytotoxicity test was not used for determination of existence or nonexistence of a phospholipidosis inductive effect.

[3] = system: X4-HIV-1 strains (for example, HIV-1NL4.3 strains); test: HIV infection inhibitory test using PBMC; format: cell-based; conditions: human PBMC stimulated with PHA and IL-2, culture 7 days, culture supernatant
Description: Human PBMC (peripheral blood mononuclear cells) was isolated from HIV-negative healthy persons and subjected to stimulated culture in the presence of PHA (Phytohemagulutinin) and IL-2. Stimulated PBMC was inoculated in each of 96-well microplates and X^4-HIV-1 strains (for example, HIV-1NL4.3 strains) were exposed in the co-presence of a test compound. After culturing for 7 days, a reverse transcriptase activity of HIV-1 in the culture supernatant was measured and an inhibitory ratio (%) of the test compound was calculated by the following calculation formula, and a concentration (IC90 value) showing a 90% inhibitory ratio was determined. Inhibition={(Et−Ec)/Et}×100 [Equation 1] Et: reverse transcriptase activity value in the absence of a test compound Ec: reverse transcriptase activity value in the presence of a test compound

Structure (SMILES): CCC(CC)N1CCC2(CC1)CC(C(=O)O)N(Cc1ccc(CN(Cc3ncc[nH]3)Cc3ncc[nH]3)cc1)C2 (centres unmarked) [Example 5(5), 2-(4-{[bis(1H-imidazol-2-ylmethyl)amino]methyl}benzyl)-8-(1-ethylpropyl)-2,8-diazaspiro[4.5]decane-3-carboxylic acid]
- T90 [1]: 91 h
- IC50 (CXCR4): 3 nM
- phospholipidosis induction activity (determination) [2]: negative
- IC90 value (concentration showing a 90% inhibitory ratio of HIV-1 reverse transcriptase activity) [3]: 0.27 nM

Structure (SMILES): CCC(CC)N1CCC2(CC1)C[C@H](C(=O)O)N(Cc1ccc(CN(Cc3ncc[nH]3)Cc3ncc[nH]3)cc1)C2 [Example 32(6), (3R)-2-(4-{[bis(1H-imidazol-2-ylmethyl)amino]methyl}benzyl)-8-(1-ethylpropyl)-2,8-diazaspiro[4.5]decane-3-carboxylic acid]
- IC50 (CXCR4): 3.3 nM
- phospholipidosis induction activity (determination) [2]: negative
- IC90 value (concentration showing a 90% inhibitory ratio of HIV-1 reverse transcriptase activity) [3]: 0.27 nM

Structure (SMILES): CCC(CC)N1CCC2(CC1)C[C@@H](C(=O)O)N(Cc1ccc(CN(Cc3ncc[nH]3)Cc3ncc[nH]3)cc1)C2 [Example 32(7), (3S)-2-(4-{[bis(1H-imidazol-2-ylmethyl)amino]methyl}benzyl)-8-(1-ethylpropyl)-2,8-diazaspiro[4.5]decane-3-carboxylic acid]
- IC50 (CXCR4): 3.2 nM
- phospholipidosis induction activity (determination) [2]: negative
- IC90 value (concentration showing a 90% inhibitory ratio of HIV-1 reverse transcriptase activity) [3]: 0.23 nM

Structure (SMILES): CCC(CC)N1CCC2(CC1)C[C@H](C(=O)O)N(Cc1ccc(CN(Cc3ncc[nH]3)Cc3nccn3C)cc1)C2 [Example 37(6), (3R)-8-(1-ethylpropyl)-2-[4-({(1H-imidazol-2-ylmethyl)[(1-methyl-1H-imidazol-2-yl)methyl]amino}methyl)benzyl]-2,8-diazaspiro[4.5]decane-3-carboxylic acid]
- IC50 (CXCR4): 11.3 nM
- phospholipidosis induction activity (determination) [2]: negative

Structure (SMILES): CCC(CC)N1CCC2(CC1)C[C@@H](C(=O)O)N(Cc1ccc(CN(Cc3ncc[nH]3)Cc3nccn3C)cc1)C2 [Example 37(7), (3S)-8-(1-ethylpropyl)-2-[4-({(1H-imidazol-2-ylmethyl)[(1-methyl-1H-imidazol-2-yl)methyl]amino}methyl)benzyl]-2,8-diazaspiro[4.5]decane-3-carboxylic acid]
- IC50 (CXCR4): 11.1 nM
- phospholipidosis induction activity (determination) [2]: negative

Structure (SMILES): CCC(CC)N1CCC2(CCN(Cc3ccc(CN(Cc4ncc[nH]4)Cc4ncc[nH]4)cc3)C2)CC1 [b, 1-(4-{[8-[1-ethylpropyl]-2,8-diazaspiro[4.5]deca-2-yl)methyl}phenyl]-N,N-bis(1H-imidazol-2-ylmethyl)methaneamine]
- T90 [1]: 12 h

Structure (SMILES): CCC(CC)N1CCC2(CC1)C[C@@H](C(N)=O)N(Cc1ccc(CN(Cc3ncc[nH]3)Cc3ncc[nH]3)cc1)C2 [c, (3S)-2-(4-{[bis(1H-imidazol-2-ylmethyl)amino]methyl}benzyl)-8-(1-ethylpropyl)-2,8-diazaspiro[4.5]decane-3-carboxyamide]
- T90 [1]: 7 h

Structure (SMILES): O=C(O)c1cc(CN(Cc2ncc[nH]2)Cc2ncc[nH]2)ccc1CN1CCC2(CCN(C3CCCCC3)CC2)C1 [d, 5-{[bis(1H-imidazol-2-ylmethyl)amino]methyl}-2-[(8-cyclohexyl-2,8-diazaspiro[4.5]deca-2-yl)methyl]benzenecarboxylic acid]
- T90 [1]: 5 h

Structure (SMILES): CCC(CC)N1CCC2(CC1)CN(Cc1ccc(CN(Cc3ncc[nH]3)Cc3ncc[nH]3)cc1)CC2C(=O)O (centres unmarked) [e, 2-(4-{[bis(1H-imidazol-2-ylmethyl)amino]methyl}benzyl)-8-(1-ethylpropyl)-2,8-diazaspiro[4.5]decane-4-carboxylic acid]
- T90 [1]: 17 h

Structure (SMILES): CCC(CC)N1CCC2(CC1)CCN(Cc1ccc(CN(Cc3ncc[nH]3)Cc3ncc[nH]3)cc1)C2C(=O)O (centres unmarked) [f, 2-(4-{[bis(1H-imidazol-2-ylmethyl)amino]methyl}benzyl)-8-(1-ethylpropyl)-2,8-diazaspiro[4.5]decane-1-carboxylic acid]
- T90 [1]: 6 h

Structure (SMILES): CC(C)CN1CCC2(CCN(Cc3ccc(CN(Cc4ncc[nH]4)Cc4ncc[nH]4)cc3)C2)CC1C(=O)O (centres unmarked) [g, 2-(4-{[bis(1H-imidazol-2-ylmethyl)amino]methyl}benzyl)-8-isobutyl-2,8-diazaspiro[4.5]decane-7-carboxylic acid]
- T90 [1]: 2 h

Structure (SMILES): CCC(CC)N1CC2(CCN(Cc3ccc(CN(Cc4ncc[nH]4)Cc4ncc[nH]4)cc3)CC2)CC1C(=O)O (centres unmarked) [h, 8-(4-{[bis(1H-imidazol-2-ylmethyl)amino]methyl}benzyl)-2-(1-ethylpropyl)-2,8-diazaspiro[4.5]decane-3-carboxylic acid]
- T90 [1]: 1.2 h

Structure (SMILES): CCCN(CC)CCCCN(CC(=O)O)Cc1ccc(CN(Cc2ncc[nH]2)Cc2nccn2C)cc1 [i]
- T90 [1]: 3 h

Structure (SMILES): CCOC(=O)C1CC2(CCN(Cc3ccc(C(=O)N(Cc4ncc[nH]4)Cc4ncc[nH]4)cc3)CC2)CN1C1CCCCC1 (centres unmarked) [j]
- T90 [1]: <1 h

Structure (SMILES): COC(=O)c1cc(CN(Cc2ncc[nH]2)Cc2ncc[nH]2)ccc1CN1CCC2(CCN(Cc3sccc3C)CC2)C1 [k]
- T90 [1]: 14 h

Structure (SMILES): O=C(O)Cn1ccnc1CN(Cc1ccc(CN2CCC3(CCN(C4CCCCC4)CC3)C2)cc1)Cc1ncc[nH]1 [l]
- T90 [1]: 4 h

Structure (SMILES): CCC(CC)N1CCC2(CCN(CCCn3ccnc3CN(Cc3cccc(CC(=O)O)c3)Cc3ncc[nH]3)C2)CC1 [m]
- T90 [1]: 4 h
